Laboratory results published in patent publication US8952024B2, “Herbicidal pyrimidone derivatives” (E I du Pont de Nemours and Company, priority 2009, dated 2015).

Columns and labels:
Type in all cases: in vivo
[1] = system: pigweed (Amaranthus retroflexus); assay: Test A pre-/postemergence plant response
Summary of the method: (§1)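 Injury was scored visually after roughly ten days against untreated controls, 0 = no effect, 100 = complete control. Test chemicals in a surfactant-containing non-phytotoxic solvent were sprayed either onto soil preemergence or onto one- to two-leaf, 2–10 cm plants postemergence.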

[2] = system: morningglory (Ipomoea spp.); assay: Test A pre-/postemergence plant response
Summary of the method: as §1

[3] = system: umbrella sedge (Cyperus difformis); assay: Test B flooded paddy test; details: for Plant response rating, Sedge, Umbrella: Flood (flooded paddy test), 13 to 15 days
Summary of the method: (§2)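 Seedlings reaching 2 leaves are flooded 3 cm deep; test material is delivered to that water, which stays at the same depth. Plants remain in a greenhouse 13–15 days and are then scored by eye versus controls from 0 to 100.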

[4] = system: barnyardgrass (Echinochloa crus-galli); assay: Test B flooded paddy test; details: for Plant response rating, Barnyardgrass: Flood (flooded paddy test), 13 to 15 days
Summary of the method: as §2

[5] = system: ducksalad (Heteranthera limosa); assay: Test B flooded paddy test; details: for Plant response rating, Ducksalad: Flood (flooded paddy test), 13 to 15 days
Summary of the method: as §2

rice (Oryza sativa) = assay: Test B flooded paddy test; details: for Plant response rating, Rice: Flood (flooded paddy test), 13 to 15 days
Summary of the method: as §2

[6] = Postemergence, 125 g ai/ha, visual injury, 0 to 100 scale (0 no effect, 100 complete control), approx. ten days
[7] = Postemergence, 500 g ai/ha, 0 to 100 scale, 0 = no effect, 100 = complete control, approx. ten days
[8] = Preemergence, 125 g ai/ha, 0 to 100 scale, 0 = no effect, 100 = complete control
[9] = Preemergence, 500 g ai/ha, visual injury, 0 to 100 scale (0 no effect, 100 complete control), approx. ten days
[10] = 250 g ai/ha, flooded paddy test, visual rating on 0 to 100 scale (0 no effect, 100 complete control) after 13 to 15 days
[11] = 31 g ai/ha, scale of 0 to 100 where 0 is no effect and 100 is complete control
[12] = 62 g ai/ha, scale 0 to 100, 0 is no effect, 100 is complete control
[13] = 125 g ai/ha, scale 0 to 100, 0 is no effect, 100 is complete control

COc1cccc(-n2c(-c3ccccc3)ncc(C(=O)C3=C(O)CCCC3=O)c2=O)c1 [Compound 19]
Pigweed plant response rating [1, 6]: 80
Plant response rating, Pigweed [1, 7]: 100
Plant response rating, Pigweed [1, 8]: 80
Plant response rating, Pigweed [1, 9]: 90
Morningglory plant response rating [2, 6]: 0
Plant response rating, Morningglory [2, 7]: 60
Plant response rating, Morningglory [2, 8]: 0
Plant response rating, Morningglory [2, 9]: 50
Plant response rating, Flood, Sedge, Umbrella [3, 10]: 95
Plant response rating, Sedge, Umbrella [3, 11]: 0
Plant response rating, Sedge, Umbrella [3, 12]: 70
Plant response rating, Sedge, Umbrella [3, 13]: 85
Plant response rating, Flood, Barnyardgrass [4, 10]: 15
Plant response rating, Barnyardgrass [4, 11]: 0
Plant response rating, Barnyardgrass [4, 12]: 0
Plant response rating, Barnyardgrass [4, 13]: 0
Plant response rating, Flood, Ducksalad [5, 10]: 90
Plant response rating, Ducksalad [5, 11]: 0
Plant response rating, Ducksalad [5, 12]: 75
Plant response rating, Ducksalad [5, 13]: 85
Plant response rating, Flood, Rice (rice (Oryza sativa); [10]): 0
Plant response rating, Rice (rice (Oryza sativa); [11]): 0
Plant response rating, Rice (rice (Oryza sativa); [12]): 0
Plant response rating, Rice (rice (Oryza sativa); [13]): 0
